{"source": "patent US20060052430A1", "about": "“Antihistamines for increased tolerance to extreme heat” (priority 2004, published 2006)", "key": {"[1]": {"details": "in vivo; cited from earlier work"}, "rat": {"system": "rat", "details": "literature; cited from earlier work"}, "chickens": {"system": "chickens", "details": "cimetidine in the diet, stress was not heat; cited from earlier work"}, "[2]": {"details": "conscious rats, i.v. 10 mg/kg in 3% EtOH 30 minutes prior to heat exposure at 44° C. ± 1"}}, "data": [{"smiles": "CN/C(=N/CCSCc1nc[nH]c1C)NC#N", "note": "[Cimetidine, cimetidine]", "values": [{"measurement": "Core body temperature after onset of heat stroke until heat shock, vs controls", "setting": "conscious rats; FIG. 1", "value": "lower core body temperature"}, {"measurement": "Time a lower, non-pathological core temperature is maintained in extreme heat, vs controls", "setting": "conscious rats; FIG. 1, cimetidine pretreated animals", "value": "2-4 times longer"}, {"measurement": "Time of MAP blood pressure crash, vs controls", "setting": "conscious rats; FIG. 2", "value": "delayed"}, {"measurement": "Increase of interval between initiation of exposure to extreme heat and heat stroke crash to 40 mmHg, vs control", "setting": "conscious rats; cimetidine pretreatment, P<0.05", "value": 2.6, "unit": "fold"}, {"measurement": "Max. HR (heart rate)", "setting": "conscious rats; [2]", "value": "532 ± 28 BPM ± SEM"}, {"measurement": "Max. MAP (mean arterial pressure)", "setting": "conscious rats; [2]", "value": "173 ± 23 mmHg ± SEM"}, {"measurement": "Max. TB (body temperature)", "setting": "conscious rats; [2]", "value": "41.9 ± 0.9 °C ± SEM"}, {"measurement": "Heat Tolerance (time of heat exposure until heat shock, TB ≧ 41.3° C. and MAP <40 mmHg)", "setting": "conscious rats; conscious rats, i.v. 10 mg/kg in 3% EtOH 30 minutes prior to heat exposure at 44° C. ± 1, p<0.05 vs control", "value": "315 ± 61 minutes ± SEM"}, {"measurement": "Heart rate in the interval from exposure to heat stroke, MAP crash, vs controls", "setting": "conscious rats; rat, in vivo", "value": "did not differ"}, {"measurement": "Half-life", "setting": "[1]", "value": 2, "unit": "h"}, {"measurement": "Effect in heat-induced brain injury (blood-brain barrier permeability, cerebral blood flow disturbances, edema, cell reactions)", "setting": "rat", "value": "beneficial"}, {"measurement": "Stress-induced modulations", "setting": "chickens", "value": "reduced"}]}]}
